Earlier results in US20050058722A1, “Herbo-mineral formulation for refractory leukemias and lymphomas” (Sahajanand Biotech Private Limited, priority 2003, published 2005).

Assays:
[1] = test system: lymphoid neoplasms; settings: pre-clinical studies
[2] = test system: myeloid leukemia cell lines; settings: pre-clinical studies

**Q.** What does the source list for Arsenic trioxide?
**A.** Apoptosis and cell cycle [1]: induction of apoptosis and cell cycle arrest; Apoptosis and differentiation [2]: dose-dependent induction of apoptosis and partial differentiation
